For 29 molecules, activity results are on record in US20100119599A1 (ARCHER PHARMACEUTICALS, INC., priority 2006, published 2010).

For assay [1], the system named is Aβ1-40. Description: Measurement of Aβ1-40 in culture medium of 7W WT APP751 CHO cells by ELISA. The class given is cell-based, Chinese hamster. The following applies: Cricetulus griseus; Table 1; 5 μM test compound; CHO cells stably transfected with human APP751; culture medium, ELISA; control DMSO; 0 = no detectable amount. A general note: An ELISA detects its analyte on a solid surface through an enzyme-linked reagent.

The test system of assay [2] is Aβ1-42. Description: Measurement of Aβ1-42 in culture medium of 7W WT APP751 CHO cells by ELISA. The class given is cell-based, Chinese hamster. To be noted: Cricetulus griseus; Table 1; 5 μM test compound; CHO cells stably transfected with human APP751; culture medium, ELISA; control DMSO; 0 = no detectable amount; read-out: Aβ1-42 (% of control).
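Also: 5 µM test compound but RI-coded compounds at 10 µM for 24 hours.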

With `CC1=C(C(=O)OCCOc2ccccc2)C(c2cccc(Oc3ccccc3)c2)C2=C(CC(C)(C)CC2=O)N1` (stereo not shown) [ST015055, 2-phenoxyethyl 2,7,7-trimethyl-5-oxo-4-(3-phenoxyphenyl)-1,4,6,7,8-pentahydroquinoline-3-carboxylate], the activity at 5 µM in assay [1] was found to be 13.6%; in assay [2] it was 78.2%.
In the case of `CCCOc1ccccc1C1C(C(=O)OCCc2ccccc2)=C(C)NC2=C1C(=O)CCC2` (stereo not shown) [ST015060, 2-phenylethyl 2-methyl-5-oxo-4-(2-propoxyphenyl)-1,4,6,7,8-pentahydroquinoline-3-carboxylate], the activity at 5 µM in assay [1] and in assay [2] was 0% throughout.
As for `CCOc1cc(C2C(C(=O)OCCc3ccccc3)=C(C)NC3=C2C(=O)CCC3)cc(Br)c1O` (stereo not shown) [ST015061, 2-phenylethyl 4-(3-bromo-5-ethoxy-4-hydroxyphenyl)-2-methyl-5-oxo-1,4,6,7,8-pentahydroquinoline-3-carboxylate], the activity at 5 µM is 40.8% in assay [1] and 33.5% in assay [2].
In the case of `CC1=C(C(=O)OCCc2ccccc2)C(c2cccc(Cl)c2Cl)C2=C(CCCC2=O)N1` (stereo not shown) [ST015062, 2-phenylethyl 4-(2,3-dichlorophenyl)-2-methyl-5-oxo-1,4,6,7,8-pentahydroquinoline-3-carboxylate], the activity at 5 µM was 30.6% in assay [1] and 20.8% in assay [2].
On the same counts, the results for `CC1=C(C(=O)OCCOc2ccccc2)C(c2ccc(Cl)cc2Cl)C2=C(CC(C)(C)CC2=O)N1` (stereo not shown) [ST015067, 2-phenoxyethyl 4-(2,4-dichlorophenyl)-2,7,7-trimethyl-5-oxo-1,4,6,7,8-pentahydroquinoline-3-carboxylate] are 4.89% and 43.9%.
In the same order, the values of `CCOC(=O)C1=C(C)NC2=C(C(=O)CC(c3ccc(Cl)cc3)C2)C1c1cccc(Cl)c1Cl` (stereo not shown) [ST015068, ethyl 4-(2,3-dichlorophenyl)-7-(4-chlorophenyl)-2-methyl-5-oxo-1,4,6,7,8-pentahydroquinoline-3-carboxylate] are 46.3% and 83.8%.
In the same order, the values of `COC(=O)C1=C(C)NC2=C(C(=O)CC(c3ccccc3Cl)C2)C1c1cccc([N+](=O)[O-])c1` (stereo not shown) [ST015070, methyl 7-(2-chlorophenyl)-2-methyl-4-(3-nitrophenyl)-5-oxo-1,4,6,7,8-pentahydroquinoline-3-carboxylate] are 65.4% and 97%.
Regarding `COc1cc(C2C(C(=O)OCCOc3ccccc3)=C(C)NC3=C2C(=O)CC(C)(C)C3)ccc1OCc1ccccc1` (stereo not shown) [ST015071, 2-phenoxyethyl 4-[3-methoxy-4-(phenylmethoxy)phenyl]-2,7,7-trimethyl-5-oxo-1,4,6,7,8-pentahydroquinoline-3-carboxylate], the activity at 5 µM in assay [1] came to 60.8%; in assay [2] it was 88.3%.
On the same counts, the results for `CSc1ccc(C2C(C(=O)OCCOc3ccccc3)=C(C)NC3=C2C(=O)CCC3)cc1` (stereo not shown) [ST015072, 2-phenoxyethyl 2-methyl-4-(4-methylthiophenyl)-5-oxo-1,4,6,7,8-pentahydroquinoline-3-carboxylate] are 19.3% and 59.4%.
Take `CCN(CC)c1ccc(C2C(C(=O)OCCOc3ccccc3)=C(C)NC3=C2C(=O)CC(C)(C)C3)cc1` (stereo not shown) [ST015075, 2-phenoxyethyl 4-[4-(diethylamino)phenyl]-2,7,7-trimethyl-5-oxo-1,4,6,7,8-pentahydroquinoline-3-carboxylate]: the activity at 5 µM is 51.7% in assay [1] and 42.2% in assay [2].
With `CC1=C(C(=O)OCCc2ccccc2)C(c2ccc(C)cc2)C2=C(CCCC2=O)N1` (stereo not shown) [ST015076, 2-phenylethyl 2-methyl-4-(4-methylphenyl)-5-oxo-1,4,6,7,8-pentahydroquinoline-3-carboxylate], the activity at 5 µM in assay [1] turned out to be 58.9%; in assay [2], 98.6%.
On the same counts, the results for `CC1=C(C(=O)OCCc2ccccc2)C(c2cccc(Cl)c2)C2=C(CC(C)(C)CC2=O)N1` (stereo not shown) [ST015084, 2-phenylethyl 4-(3-chlorophenyl)-2,7,7-trimethyl-5-oxo-1,4,6,7,8-pentahydroquinoline-3-carboxylate] are 59.5% and 80.2%.
On the same counts, the results for `CC1=C(C(=O)OCCc2ccccc2)C(c2ccccc2Cl)C2=C(CC(C)(C)CC2=O)N1` (stereo not shown) [ST015085, 2-phenylethyl 4-(2-chlorophenyl)-2,7,7-trimethyl-5-oxo-1,4,6,7,8-pentahydroquinoline-3-carboxylate] are 69.9% and 72.9%.
In the case of `CCOc1ccc(C2C(C(=O)OCCc3ccccc3)=C(C)NC3=C2C(=O)CC(C)(C)C3)cc1` (stereo not shown) [ST015087, 2-phenylethyl 4-(4-ethoxyphenyl)-2,7,7-trimethyl-5-oxo-1,4,6,7,8-pentahydroquinoline-3-carboxylate], the activity at 5 µM was found to be 35.3% in assay [1] and 43.7% in assay [2].
In the same order, the values of `COc1ccc(C2C(C(=O)OCCc3ccccc3)=C(C)NC3=C2C(=O)CC(C)(C)C3)c(OC)c1` (stereo not shown) [ST015090, 2-phenylethyl 4-(2,4-dimethoxyphenyl)-2,7,7-trimethyl-5-oxo-1,4,6,7,8-pentahydroquinoline-3-carboxylate] are 15.4% and 34.9%.
With `CC1=C(C(=O)OCCOc2ccccc2)C(c2cccc(Cl)c2)C2=C(CCCC2=O)N1` (stereo not shown) [ST015091, 2-phenoxyethyl 4-(3-chlorophenyl)-2-methyl-5-oxo-1,4,6,7,8-pentahydroquinoline-3-carboxylate], the activity at 5 µM in assay [1] came to 62.4%; in assay [2], 75.8%.
In the same order, the values of `CC1=C(C(=O)OCCOc2ccccc2)C(c2ccc(Cl)cc2)C2=C(CC(C)(C)CC2=O)N1` (stereo not shown) [ST015093, 2-phenoxyethyl 4-(4-chlorophenyl)-2,7,7-trimethyl-5-oxo-1,4,6,7,8-pentahydroquinoline-3-carboxylate] are 0% and 0%.
Regarding `COc1cc(C2C(C(=O)OCCc3ccccc3)=C(C)NC3=C2C(=O)CC(C)(C)C3)ccc1O` (stereo not shown) [ST015094, 2-phenylethyl 4-(4-hydroxy-3-methoxyphenyl)-2,7,7-trimethyl-5-oxo-1,4,6,7,8-pentahydroquinoline-3-carboxylate], the figures for the activity at 5 µM in assay [1] and in assay [2] were 56.3% and 59.8%, respectively.
On the same counts, the results for `CC1=C(C(=O)OCCOc2ccccc2)C(c2ccc(C)cc2)C2=C(CC(C)(C)CC2=O)N1` (stereo not shown) [ST015095, 2-phenoxyethyl 2,7,7-trimethyl-4-(4-methylphenyl)-5-oxo-1,4,6,7,8-pentahydroquinoline-3-carboxylate] are 59.7% and 0%.
On the same counts, the results for `CC1=C(C(=O)OCCOc2ccccc2)C(c2ccccc2Cl)C2=C(CC(C)(C)CC2=O)N1` (stereo not shown) [ST015096, 2-phenoxyethyl 4-(2-chlorophenyl)-2,7,7-trimethyl-5-oxo-1,4,6,7,8-pentahydroquinoline-3-carboxylate] are 28.1% and 80%.
Consider `CC1=C(C(=O)OCCc2ccccc2)C(c2ccc(Cl)c(Cl)c2)C2=C(CCCC2=O)N1` (stereo not shown) [ST015098, 2-phenylethyl 4-(3,4-dichlorophenyl)-2-methyl-5-oxo-1,4,6,7,8-pentahydroquinoline-3-carboxylate], for which the activity at 5 µM in assay [1] amounted to 40.9%; in assay [2] it was 0%.
With `CC1=C(C(=O)OCCc2ccccc2)C(c2ccc(C)cc2)C2=C(CC(C)(C)CC2=O)N1` (stereo not shown) [ST015099, 2-phenylethyl 2,7,7-trimethyl-4-(4-methylphenyl)-5-oxo-1,4,6,7,8-pentahydroquinoline-3-carboxylate], the activity at 5 µM in assay [1] stood at 14.8%; in assay [2], 33.8%.
Turning to `CC1=C(C(=O)OCCOc2ccccc2)C(c2ccc3c(c2)OCO3)C2=C(CC(C)(C)CC2=O)N1` (stereo not shown) [ST015103, 2-phenoxyethyl 4-(2H-benzo[3,4-d]1,3-dioxolan-5-yl)-2,7,7-trimethyl-5-oxo-1,4,6,7,8-pentahydroquinoline-3-carboxylate], the results for the activity at 5 µM in assay [1] and in assay [2] were 35.3% and 73.5%, respectively.
For `CCCOc1ccccc1C1C(C(=O)OCCOc2ccccc2)=C(C)NC2=C1C(=O)CC(C)(C)C2` (stereo not shown) [ST015105, 2-phenoxyethyl 2,7,7-trimethyl-5-oxo-4-(2-propoxyphenyl)-1,4,6,7,8-pentahydroquinoline-3-carboxylate], the activity at 5 µM in assay [1] was found to be 53%; in assay [2], 99.8%.
On the same counts, the results for `CC1=C(C(=O)OCCc2ccccc2)C(c2ccc(Cl)cc2)C2=C(CC(C)(C)CC2=O)N1` (stereo not shown) [ST015106, 2-phenylethyl 4-(4-chlorophenyl)-2,7,7-trimethyl-5-oxo-1,4,6,7,8-pentahydroquinoline-3-carboxylate] are 13.2% and 0%.
In the same order, the values of `COc1ccccc1C1C(C(=O)OCCOc2ccccc2)=C(C)NC2=C1C(=O)CC(C)(C)C2` (stereo not shown) [ST015108, 2-phenoxyethyl 4-(2-methoxyphenyl)-2,7,7-trimethyl-5-oxo-1,4,6,7,8-pentahydroquinoline-3-carboxylate] are 33% and 92.1%.
For the molecule `COc1ccccc1C1C(C(=O)OCCc2ccccc2)=C(C)NC2=C1C(=O)CCC2` (stereo not shown) [ST015110, 2-phenylethyl 4-(2-methoxyphenyl)-2-methyl-5-oxo-1,4,6,7,8-pentahydroquinoline-3-carboxylate], the figures for the activity at 5 µM in assay [1] and in assay [2] were 42.8% and 90.1%, respectively.
With `CC1=C(C(=O)OC2CCCCC2)C(c2cccc(Cl)c2)C2=C(CCCC2=O)N1` (stereo not shown) [ST015159, cyclohexyl 4-(3-chlorophenyl)-2-methyl-5-oxo-1,4,6,7,8-pentahydroquinoline-3-carboxylate], the values for the activity at 5 µM in assay [1] and in assay [2] were 2.98% and 0%, respectively.
For `CCCCCOC(=O)C1=C(C)NC2=C(C(=O)CCC2)C1c1ccccc1OCC` (stereo not shown) [ST015174, pentyl 4-(2-ethoxyphenyl)-2-methyl-5-oxo-1,4,6,7,8-pentahydroquinoline-3-carboxylate], the activity at 5 µM in assay [1] came out at 17.2%; in assay [2], 0%.
